One test deals with T1, PPARgamma (Homo sapiens, UniProt P37231).
T1 construct: uses chimeric receptors where the PPAR LBD is fused to the DBD of the yeast transcription factor GAL4; expressed in transfected cells
T1 sequence (P37231 238-503 limits assumed): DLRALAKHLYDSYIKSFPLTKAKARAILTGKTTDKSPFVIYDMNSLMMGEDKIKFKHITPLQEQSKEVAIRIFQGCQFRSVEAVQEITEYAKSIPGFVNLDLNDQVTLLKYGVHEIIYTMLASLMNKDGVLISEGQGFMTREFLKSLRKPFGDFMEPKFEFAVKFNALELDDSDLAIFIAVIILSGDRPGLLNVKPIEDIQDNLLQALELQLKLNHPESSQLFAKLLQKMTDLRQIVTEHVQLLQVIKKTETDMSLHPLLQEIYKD
Briefly: cell based transactivation assay, PPARgamma. To be noted: activation, transactivation assay in vitro; read-out: EC50 for PPAR isoforms: PPARgamma. On the procedure:
(§1) The binding of agonist ligands to the receptor results in changes in the expression level of mRNAs encoded by PPAR target genes. This process, “transactivation”, is determined by cell-based assays which monitor this functional activity. Transactivation assays use cells that have been transfected with a vector expressing the receptor as well as a second vector containing a DNA direct repeat (DR-1) response element and a reporter gene, which encodes an enzyme such as chloramphenicol acetyltransferase, secreted placental alkaline phosphatase, or firefly luciferase. […]
(§2) The binding of agonist ligands to a nuclear receptor results in transactivation, i.e., changes in the expression level of mRNAs encoded by PPAR target genes. […] Activation of the receptor by agonist ligands leads to induction of reporter enzyme expression, which can be conveniently assayed using standard colorimetric or photometric plate readers. […]

Test [1] has as its system human psoriasis skin engrafted onto severe combined immunodeficient (SCID) mice. Briefly: SCID mouse, human skin transplant model of psoriasis. Format: in vivo. An excerpt: Background: Human psoriasis skin engrafted onto severe combined immunodeficient (SCID) mice maintains its abnormal histologic characteristics in the absence of any treatment. Treatment of this SCID mouse, human skin transplant model of psoriasis with anti-psoriatic drugs will improve the histologic phenotype of the transplanted psoriatic skin. Thus, the SCID mouse with transplanted human psoriatic skin represents a useful model of psoriasis and can be used to test the therapeutic effects of antipsoriatic drugs (as described in the following references: 1) Nickoloff B J, Kunkel S L, Burdick […]. Severe combined immunodeficiency mouse and human psoriatic skin chimeras. Validation of a new animal model. Am J Pathol. 1995; 146:580-588. […] Archives of Dermatology 136:609-616, 2000). Methods: Keratome pieces of lesional psoriasis skin were transplanted onto immunodeficient mice (such as CB17 strain) as previously described (Nickoloff B J, Kunkel S L, Burdick […]. Am J Pathol. 1995; 146:580-588. Ellis […], Fisher […], Benson S C, Kurtz T W. Archives of Dermatology. 136:609-616, 2000). The transplanted tissue was allowed to heal for four weeks after which six animals were treated once daily for 4-8 weeks by topical application of BP107 to the psoriatic skin in concentrations sufficient to exert an antipsoriatic effect (concentrations ranging from 0.1 micromolar to 10 millimolar in appropriate amounts of vehicle such as DMSO, propylene glycol, or other vehicles familiar to those skilled in the art). At the end of the treatment period, the animals were sacrificed, tissue pieces were fixed in 10% buffered formalin, embedded in paraffin, sectioned, stained with hematoxylin and eosin, and evaluated histologically using techniques familiar to those skilled in the art. Animals topically treated with the corresponding vehicle without any BP107 were used as controls.

The next test addresses T2, PPARdelta (Homo sapiens, UniProt Q03181).
T2 construct: uses chimeric receptors where the PPAR LBD is fused to the DBD of the yeast transcription factor GAL4; expressed in transfected cells
T2 sequence (Q03181 211-439 limits assumed): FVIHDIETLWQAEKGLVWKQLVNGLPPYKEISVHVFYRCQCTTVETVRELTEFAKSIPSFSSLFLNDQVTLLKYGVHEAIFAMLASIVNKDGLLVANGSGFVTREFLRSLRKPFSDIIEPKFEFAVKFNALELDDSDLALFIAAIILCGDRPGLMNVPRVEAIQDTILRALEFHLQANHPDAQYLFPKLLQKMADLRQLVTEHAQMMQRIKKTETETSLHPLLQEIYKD
Briefly: cell based transactivation assay, PPARdelta. As to conditions: activation, transactivation assay in vitro; read-out: EC50 for PPAR isoforms: PPARdelta. On the procedure:
as §1, §2

Another test deals with T3, PPARalpha (Homo sapiens, UniProt Q07869).
T3 construct: uses chimeric receptors where the PPAR LBD is fused to the DBD of the yeast transcription factor GAL4; expressed in transfected cells
T3 sequence (Q07869 239-466 limits assumed): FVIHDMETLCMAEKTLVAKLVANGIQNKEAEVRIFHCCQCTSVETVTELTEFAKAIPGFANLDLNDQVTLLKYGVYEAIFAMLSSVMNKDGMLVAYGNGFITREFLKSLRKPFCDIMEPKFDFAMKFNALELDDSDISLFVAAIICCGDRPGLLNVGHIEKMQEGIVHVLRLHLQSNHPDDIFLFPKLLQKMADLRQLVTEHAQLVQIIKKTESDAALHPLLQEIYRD
Briefly: cell based transactivation assay, PPARalpha. To be noted: activation, transactivation assay in vitro; read-out: EC50 for PPAR isoforms: PPARalpha. Here is the method:
as §1, §2

The mark [2] stands for this setting: topical, once daily for 4-8 weeks, histology.

This is an account of results in US7339065B2, “Design and synthesis of optimized ligands for PPAR” (Bethesda Pharmaceuticals, Inc., priority 2003, dated 2008).

pEC50: −log10 of the molar value.

Regarding `CN(CCOc1ccc(CC2SC(=O)NC2=O)cc1)C(=O)CCCCC1C2CC3CC(C2)CC1C3` (stereo not drawn) [BP 107, 5-Adamantan-2-yl-pentanoic acid {2-[4-(2,4-dioxo-thiazolidin-5-ylmethyl)-phenoxy]-ethyl}-methyl-amide], the pEC50 at PPARgamma was greater than 9.00. Moreover, the “antipsoriatic effect compared to animals treated with troglitazone or rosiglitazone” value in test [1] (topical BP107 vs weaker PPAR gamma activators) is on record as “much better”. Further, in test [1] (setting [2]), the granular layer entry is given as “present in much of the epidermis”, the inflammatory response result is “reduced” and the “pattern of epidermal differentiation” value is listed as “more normal pattern”. In addition, in test [1] (topical, once daily for 4-8 weeks, histology, vs vehicle controls), the overall skin thickness result is “reduced”. For the same molecule, the “anti-psoriatic effect compared to control animals” value in test [1] (topical, once daily for 4-8 weeks, controls treated with vehicle) is “clearly evident”. In addition, the pEC50 at PPARdelta is less than 5.00. The pEC50 at PPARalpha is less than 5.00.
